Test results from article PMC4763008, “Selective Inhibition of Bakuchicin Isolated from Psoralea corylifolia on CYP1A in Human Liver Microsomes” (Evidence-based Complementary and Alternative Medicine : eCAM, 2016).
Entries after “also recorded” stand apart in the source; their conditions may differ. Where two headings read alike, the source gives them in different places.

Tests used:
[1] = target: T1, human recombinant cDNA-expressed CYP1A2 (Homo sapiens, UniProt P05177); experiment: Inhibition of phenacetin O-deethylation by human recombinant cDNA-expressed CYP1A2; type: biochemical
T1 construct: purchased Corning Gentest (Woburn, MA)
T1 sequence (P05177 1-516): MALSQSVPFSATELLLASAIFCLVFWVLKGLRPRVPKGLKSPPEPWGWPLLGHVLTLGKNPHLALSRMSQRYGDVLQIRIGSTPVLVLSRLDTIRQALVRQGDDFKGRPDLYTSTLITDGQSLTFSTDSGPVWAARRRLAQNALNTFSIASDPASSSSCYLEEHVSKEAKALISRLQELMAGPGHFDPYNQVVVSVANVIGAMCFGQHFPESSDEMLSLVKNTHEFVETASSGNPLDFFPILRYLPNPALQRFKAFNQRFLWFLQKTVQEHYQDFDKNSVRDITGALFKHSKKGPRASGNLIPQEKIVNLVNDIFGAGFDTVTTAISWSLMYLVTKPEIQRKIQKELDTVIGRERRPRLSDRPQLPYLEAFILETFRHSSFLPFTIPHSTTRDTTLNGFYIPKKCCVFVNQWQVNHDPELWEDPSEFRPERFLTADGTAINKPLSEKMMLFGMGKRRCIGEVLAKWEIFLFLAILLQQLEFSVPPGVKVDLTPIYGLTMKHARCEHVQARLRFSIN
Protocol: (§1) To confirm the selective inhibition of CYP1A by bakuchicin, 10 pmol of human recombinant cDNA-expressed CYP1A1 and CYP1A2 was incubated with bakuchicin at 0.1–50 μM and NGS for 60 min at 37°C after the addition of 80 μM phenacetin as a selective CYP1A substrate. Those were terminated by adding 100 μL acetonitrile containing 0.1% formic acid and 2.5 μL of internal standard solution (5 μM reserpine) in methanol. After mixing and centrifuging at 13,000 ×g for 12 min, a 5 μL aliquot was injected onto a C18 column for LC-MS/MS analysis. CYP1A1 and CYP1A2 activities were determined by phenacetin O-deethylation. The inhibition patterns of bakuchicin on CYP1A in human recombinant cDNA-expressed CYP1A1 and CYP1A2 were confirmed by Michaelis-Menten and secondary plot.
(§2) All measurements were performed using LC-MS/MS in multiple reaction monitoring mode. LC-MS/MS was performed using an Accela™ LC system coupled to a TSQ Vantage triple quadrupole mass spectrometer (Thermo Fisher Scientific Inc., USA) equipped with a HESI-II Spray source. Electrospray ionization was performed in positive mode at a spray voltage of 3,500 V (except for the detection of 6-hydroxy chlorzoxazone). Nitrogen was used as a sheath and auxiliary gas at optimum values of 45 and 20 (arbitrary units), respectively. Vaporizer and capillary temperatures were 150 and 300°C, respectively. For LC analysis an Inertsil® ODS-2 (3 μm, 2.1 × 150 mm) column (GL Sciences Inc., Torrance, CA) was used. The mobile phase consisted of acetonitrile (mobile phase A) and water (mobile phase B), both of which contained 0.1% formic acid, at a flow rate of 0.22 mL/min at 30°C.
(§3) All incubations were performed in duplicate, and data are presented as means. IC50 values (the concentration of inhibitor causing a 50% inhibition in enzyme activity) were obtained using percent activity versus log[I] concentration plots. Kinetic parameters were estimated by curve fitting using SigmaPlot (version 12.0, Systat Software, Inc.).

CYP2E1 = target: T2, CYP2E1 (Homo sapiens, UniProt P05181); experiment: CYP inhibition, cocktail of probe substrates in pooled human liver microsomes: chlorzoxazone 6-hydroxylation; type: in vitro ADME; conditions: pooled HLMs, substrate 50 μM
T2 construct: tissue Corning Gentest BD UltraPool HLM 150; host or cells: pooled human liver microsomes
T2 sequence (P05181 whole entry): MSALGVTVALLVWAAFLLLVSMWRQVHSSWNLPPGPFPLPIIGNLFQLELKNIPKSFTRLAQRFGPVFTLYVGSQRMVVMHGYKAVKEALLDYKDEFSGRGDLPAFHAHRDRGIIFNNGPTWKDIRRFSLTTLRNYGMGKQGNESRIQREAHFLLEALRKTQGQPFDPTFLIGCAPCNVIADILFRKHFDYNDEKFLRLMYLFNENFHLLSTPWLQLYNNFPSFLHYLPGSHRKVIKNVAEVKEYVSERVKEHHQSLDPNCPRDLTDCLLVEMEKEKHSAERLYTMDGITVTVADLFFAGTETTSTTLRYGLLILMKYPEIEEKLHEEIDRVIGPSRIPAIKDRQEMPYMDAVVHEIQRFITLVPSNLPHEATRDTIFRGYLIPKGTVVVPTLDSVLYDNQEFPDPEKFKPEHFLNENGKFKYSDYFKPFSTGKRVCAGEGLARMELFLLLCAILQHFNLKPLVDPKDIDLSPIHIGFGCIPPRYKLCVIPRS
Protocol: (§4) All incubations were performed in duplicate, and data are presented as means. Briefly, each reaction was performed with 0.5 mg/mL pooled human liver microsomes in a final incubation volume of 0.1 mL. The incubation medium consisted of 0.1 M potassium phosphate buffer (pH 7.4) containing cocktail of probe substrates and a NADPH-generating system (NGS) of 0.1 M glucose 6-phosphate, 10 mg/mL β-NADPH, and 1.0 U/mL glucose-6-phosphate dehydrogenase. To investigate the IC50 of bakuchicin during CYP1A inhibition, bakuchicin (at final concentrations of 0–25 μM) was incubated without preincubation. In addition, the mixture with bakuchicin was preincubated for 15 min without the probe substrate cocktail in the presence or absence of 1 mM β-NADPH. After the reaction was initiated by adding the NGS for 60 min, incubated samples were terminated by adding 100 μL acetonitrile containing 0.1% formic acid and 2.5 μL of internal standard solution (5 μM reserpine) in methanol. After mixing and centrifuging at 13,000 ×g for 12 min, a 5 μL aliquot was injected onto a C18 column for LC-MS/MS analysis.
as §2
All incubations were performed in duplicate, and data are presented as means. […]

CYP1A2 = target: T3, CYP1A2 (Homo sapiens, UniProt P05177); experiment: CYP inhibition, cocktail of probe substrates in pooled human liver microsomes: phenacetin O-deethylation; type: in vitro ADME; conditions: for IC50: pooled HLMs, substrate 80 μM
T3 construct: tissue Corning Gentest BD UltraPool HLM 150; host or cells: pooled human liver microsomes
T3 sequence (P05177 1-516): T1 sequence (P05177 1-516)
Protocol: as §4, §2, §3

[2] = target: T4, human recombinant cDNA-expressed CYP1A1 (Homo sapiens, UniProt P04798); experiment: Inhibition of phenacetin O-deethylation by human recombinant cDNA-expressed CYP1A1; type: biochemical
T4 construct: purchased Corning Gentest (Woburn, MA)
T4 sequence (P04798 1-512): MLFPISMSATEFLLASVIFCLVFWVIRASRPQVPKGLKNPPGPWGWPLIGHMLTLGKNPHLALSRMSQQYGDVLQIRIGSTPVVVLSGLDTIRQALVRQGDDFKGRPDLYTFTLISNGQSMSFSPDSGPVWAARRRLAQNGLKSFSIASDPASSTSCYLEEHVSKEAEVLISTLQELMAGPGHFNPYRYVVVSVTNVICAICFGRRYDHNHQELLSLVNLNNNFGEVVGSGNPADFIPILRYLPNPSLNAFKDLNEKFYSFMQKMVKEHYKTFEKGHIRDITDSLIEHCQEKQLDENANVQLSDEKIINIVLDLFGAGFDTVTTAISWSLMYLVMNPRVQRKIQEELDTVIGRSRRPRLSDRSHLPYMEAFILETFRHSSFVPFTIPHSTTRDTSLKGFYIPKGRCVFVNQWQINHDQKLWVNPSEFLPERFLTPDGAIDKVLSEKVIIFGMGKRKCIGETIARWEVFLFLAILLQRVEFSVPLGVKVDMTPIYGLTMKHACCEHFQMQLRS
Protocol: as §1, §2, §3

[3] = 15 min preincubation with NADPH, read-out: IC50 With preincubation with NADPH
[4] = 15 min preincubation without NADPH, read-out: IC50 With preincubation Without NADPH
[5] = without preincubation, read-out: IC50 Without preincubation

With `O=c1ccc2c(ccc3ccoc32)o1` [Bakuchicin] the IC50 ([1]; recombinant CYP1A2, 80 μM phenacetin, 60 min, read-out: IC50, CYP1A2-catalyzed phenacetin O-deethylase activity) was 1400 nM, the “inhibition mode on CYP1A2” value ([1]; recombinant CYP1A2, Lineweaver-Burk plot) was “competitive inhibitor; also recorded: competitive inhibition” and the Ki ([1]; recombinant CYP1A2, phenacetin 20, 40, 80 μM, 60 min, read-out: Ki on CYP1A2 (secondary plot)) was 320 nM. For the same compound, the “Ki on CYP1A2 relative to Ki on CYP1A1” value ([1]; recombinant enzymes) was 3 fold, the “IC50 for CYP1A2 relative to CYP1A1” value ([1]; recombinant enzymes, CYP1A2 IC50 higher than CYP1A1 IC50) was 7 fold and the IC50 (CYP2E1; [3]) was > 100000 nM. For the same compound, the IC50 (CYP2E1; [4]) was > 100000 nM, the IC50 (CYP2E1; [5]) was > 100000 nM and the “time dependence of CYP1A inhibition” value (CYP1A2; HLMs, preincubation time 0-20 min at 37°C) was “not time-dependent inhibition”. The IC50 (CYP1A2; [3]) was 220 nM, the IC50 (CYP1A2; [4]) was 220 nM and the IC50 (CYP1A2; [5]) was 430 nM. For the same compound, the IC50 ([2]; recombinant CYP1A1, 80 μM phenacetin, 60 min, read-out: IC50, CYP1A1-catalyzed phenacetin O-deethylase activity) was 200 nM, the “inhibition mode on CYP1A1” value ([2]; recombinant CYP1A1, Lineweaver-Burk plot) was “competitive inhibitor; also recorded: competitive inhibition” and the Ki ([2]; recombinant CYP1A1, phenacetin 20, 40, 80 μM, 60 min, read-out: Ki on CYP1A1 (secondary plot)) was 110 nM.
